Consider two compounds from patent US20140271734A1, “BILE ACID RECYCLING INHIBITORS FOR TREATMENT OF BARRETT'S ESOPHAGUS AND GASTROESOPHAGEAL REFLUX DISEASE” (LUMENA PHARMACEUTICALS, INC., priority 2013, published 2014).

The structures appear in SMILES notation.

Series [1] relates to fecal bile acid (FBA). In words: Fecal bile acids in rats, LUM001 Q.D. for four days. Type of series: in vivo, Wistar rats. As for the experimental part:
Male Wistar rats (Charles River Laboratories) weighing 275-300 grams were single-housed in a constant temperature environment with alternating 12 hour light and dark cycles. All animals had continuous access to a commercial rodent diet as well as water. In each study rats were randomly assigned to either vehicle or treatment groups and were administered intragastric doses (Q.D. gavage) of drug dissolved in aqueous 0.2% (v/v) Tween 80 (2 ml kg body weight). The animals were dosed in the morning between 9:00 and 10:00 a.m. for four consecutive days. Fecal samples were collected on papers underneath each cage during the final 48 hour period of the study and analyzed for bile acid content.
Cage papers containing the 48-hour fecal samples were collected at approximately 9:00 a.m. on the final day and used to determine the individual fecal bile acid (FBA) concentration for each animal. Fecal samples from each rat were weighed and a weight of distilled water (1 gram/mL) equal to 2 times the total weight of feces was added to each sample container (e.g., 20 mL water to 10 grams feces). The containers were stored overnight at 4° C. Each sample was homogenized for approximately 45 seconds using a small food processor to yield a homogeneous slurry. 1.4 grams of the homogenate was weighed into 16×100 polypropylene tubes and 2.6 mL of tertiary butanol/distilled water (2:0.6) added to yield a final concentration of 50% (v/v) tertiary butanol in water. The sample was extracted by incubation for 45 minutes in a 37° C. water bath, and subjected to centrifugation at 3000×g for 13 minutes and the supernatant extract collected.
The concentration of bile acids […] in the extract was determined using a 96-well enzymatic assay system (4,5). 20 μl aliquots of each butanol extract was added to two sets of triplicate wells in a 96-well assay plate (one set on each half of the plate). Standardized sodium taurocholate solutions (0.2 and 0.9 mM) and standardized fecal extract solutions (previously made from pooled fecal samples collected from control and drug-treated rats) were analyzed in parallel to provide a bile acid standard curve and internal quality control samples, respectively. 20 μl aliquots of the sodium taurocholate standard were serially diluted to generate a standard curve and were added to two separate sets of triplicate wells.
To each well, 230 μl of reaction mixture containing 1M hydrazine hydrate, 0.1 M pyrophosphate and 0.46 mg/ml NAD was added. To start the reaction, a 50 μl aliquot of either 3a-hydroxysteroid dehydrogenase enzyme (HSD; 0.8 units/ml) or assay buffer (0.1 M sodium pyrophosphate) was added to one set of triplicate wells for each sample, respectively, with the set containing the assay buffer serving as the reaction blank. All reagents were obtained from Sigma Chemical Co., St. Louis, Mo. Following a 60 minute incubation at room temperature, the optical density at 340 nm was measured and the mean of each set of triplicate wells was calculated. The difference in optical density between the corresponding wells containing the HSD enzyme and the wells containing the assay buffer was used to determine the bile acid concentration (mM) of each sample by comparison to the sodium taurocholate standard curve. The bile acid concentration of the extract and the weight of the fecal homogenate (grams) were used to calculate FBA concentration in mmoles/day for each animal. The mean FBA concentration (mmoles/day) of the vehicle group was subtracted from the FBA concentration of individual rats in a treatment group to yield the increase in FBA concentration due to drug treatment for that animal. A mean value for the increase in FBA for each group was determined and compared to the vehicle group used, to determine compound dosing efficacy. Data was the average from the two days of fecal collection (Mean±SEM, n=4-20). […]

Series [2] deals with serum bile acids. In words: Fasting and post-prandial serum bile acids in children and adolescents on LUM001. The format is in vivo, human. How it is done:
LUM001 has been administered to forty patients under the age of 18 years old. […] The drug was administered once-a-day (QD) in the morning for fourteen days. […] These doses are similar to those using to treat patients with Barrett's esophagus or GERD.
The efficacy of LUM001 was determined by measuring total serum bile acids after eight days of dosing in children and adolescents under the age of eighteen. Thirty minutes before the next drug administration, at approximately 8 am in the morning, serum bile acid levels were measured. The child had refrained from food for 12 hours prior to this sample thus providing a fasted level of serum bile acid. After breakfast, serum bile acids were measured for up to the next 4 hours (8 am to noon) and the peak serum bile acid concentration noted.

The nature of series [3]: Body weight of hamsters, LUM001 for 28 days. Conditions: n=10. Type of series: in vivo, golden Syrian hamsters. How it is done: Male golden Syrian hamsters (126-147 gm) were obtained from Charles Rivers Laboratories and were single housed in a constant temperature environment with alternating 12-hour light and dark cycles. Hamsters were fed Teklad 7001 rodent meal chow at libitum for two weeks before the experimental studies began and switched to Teklad 7001 rodent meal chow supplemented with 0.24% cholesterol on day one of the 28-day experiment. LUM001 was dissolved in an aqueous solution of 0.2% (w/v) Tween 80 and administered Q.D. by intragastric gavage between 9 a.m. and 10 a.m. each morning using a syringe fitted with a flexible feeding tube. Blood samples were collected after 14- and 28-day treatment periods by orbital sinus and cardiac puncture, respectively. Hamsters were anesthetized but not fasted prior to blood collections. Fecal samples were collected during a 48-hour period at the end of days 14 and 28 (i.e., days 13-14 and 27-28, respectively).

In series [4] the test system is plasma lipase. In words: Plasma lipase in ZDF rats, week 3. The format is in vivo. The settings on record: twice daily oral gavage.
The test system of series [5] is Hemoglobin A1c (HbA1c). Description: Baseline-corrected percent HbA1c in ZDF rats. Type of series: in vivo. Conditions: twice daily oral gavage.

With `CCCCC1(CCCC)CS(=O)(=O)c2ccc(N(C)C)cc2[C@@H](c2ccc(OCc3ccc(C[N+]45CCN(CC4)CC5)cc3)cc2)[C@H]1O` [LUM001], the Fecal Bile Acids amounted to 34 µmol/day in series [1] (Q.D. 0.0006 mg/kg/day); 26.6 µmol/day in series [1] (Q.D. 0.002 mg/kg/day); 31.3 µmol/day in series [1] (Q.D. 0.003 mg/kg/day); 25.8 µmol/day in series [1] (Q.D. 0.008 mg/kg/day); 41.6 µmol/day in series [1] (Q.D. 0.016 mg/kg/day); 44 µmol/day in series [1] (Q.D. 0.04 mg/kg/day). Besides, the Fecal Bile Acids in series [1] (Q.D. 0.08 mg/kg/day) is 55.6 µmol/day; in series [1] (Q.D. 0.2 mg/kg/day) it was 62.7 µmol/day; in series [1] (Q.D. 0.4 mg/kg/day), 62.3 µmol/day; in series [1] (Q.D. 2 mg/kg/day), 71.6 µmol/day; in series [1] (all doses, Q.D. gavage for four days), “significantly increased fecal bile acids for all doses”. Also, the Fecal Bile Acids, Increase over Vehicle (Delta) in series [1] (Q.D. 0.0006 mg/kg/day) amounted to 12.1 µmol/day; in series [1] (Q.D. 0.002 mg/kg/day), 4.1 µmol/day; in series [1] (Q.D. 0.003 mg/kg/day), 10.7 µmol/day; in series [1] (Q.D. 0.008 mg/kg/day), 5.9 µmol/day; in series [1] (Q.D. 0.016 mg/kg/day), 24.7 µmol/day; in series [1] (Q.D. 0.04 mg/kg/day), 21.7 µmol/day. Further, the Fecal Bile Acids, Increase over Vehicle (Delta) stood at 35.2 µmol/day in series [1] (Q.D. 0.08 mg/kg/day), 40.8 µmol/day in series [1] (Q.D. 0.2 mg/kg/day), 47 µmol/day in series [1] (Q.D. 0.4 mg/kg/day) and 54.6 µmol/day in series [1] (Q.D. 2 mg/kg/day). Further, in series [2] (LUM001 treated patients), the “Decrease of average fasting serum bile acid vs placebo patients” value came out at 24%. For the same compound, in series [2] (LUM001 treated patients), the “Decrease of average post-prandial peak serum bile acid vs placebo patients” value is 23%. For the same compound, the “Average post-prandial peak serum bile acid level” value in series [2] (LUM001 treated patients (placebo 11.9)) turned out to be 9.2 µmol/L. The “Morning Post-prandial peak serum bile acid” value is 8.4 µmol/L in series [2] (Patient 304, 1 mg, after eight days of dosing); 9.3 µmol/L in series [2] (Patient 308, 1 mg, after eight days of dosing); 10.0 µmol/L in series [2] (Patient 309, 1 mg, after eight days of dosing); 6.8 µmol/L in series [2] (Patient 401, 2.5 mg, after eight days of dosing). In series [2] (children and adolescents, after eight days of dosing), the “Fasting and post-prandial peak levels of serum bile acids” value is “generally decrease both the fasting and post-prandial peak levels of serum bile acids”. Also, the “Body Weight (BW)” value is 130 g in series [3] (5 mg/kg/day), 136 g in series [3] (15 mg/kg/day) and 130 g in series [3] (50 mg/kg/day).
In the case of `CCCC[C@]1(CC)CS(=O)(=O)c2ccc(N(C)C)cc2[C@@H](c2cccc(NC(=O)N[C@@H]3O[C@H](COS(=O)(=O)[O-])[C@@H](O)[C@H](OCc4ccccc4)[C@H]3O)c2)[C@H]1O.CCO.O.[K+]` [LUM002, potassium((2R,3R,4S,5R,6R)-4-benzyloxy-6-{3-[3-((3S,4R,5R)-3-butyl-7-dimethylamino-3-ethyl-4-hydroxy-1,1-dioxo-2,3,4,5-tetrahydro-1H-benzo[b]thiepin-5-yl)-phenyl]-ureido}-3,5-dihydroxy-tetrahydro-pyran-2-ylmethyl)sulphate ethanolate, hydrate], the Plasma lipase entry in series [4] is “statistically significant reductions in plasma lipase at higher doses”. Further, the “Baseline-corrected percent HbA1c” value in series [5] was “significant dose-dependent reductions”.
